Test results from patent US7576064B2, “Pyrazole derivative, drug composition containing the same and production intermediate therefor” (Kissei Pharmaceutical Co., Ltd., priority 2003, dated 2009).

Key:
human SMINT [1] = target: T1, human SMINT (Homo sapiens, UniProt Q2M3M2); test: Confirmatory test for inhibitory activity on human SMINT (methyl-α-D-glucopyranoside uptake in transiently expressing COS-7 cells); type: cell-based; conditions: COS-7 cells transiently expressing human SMINT; 1 mM α-MG; 1 hour, 37° C.; read-out: IC50 value (concentration inhibiting α-MG uptake by 50%)
T1 construct: expressed in transfected cells; host or cells: COS-7 cells (RIKEN CELL BANK RCB0539), transient lipofection
T1 sequence (Q2M3M2 1-681): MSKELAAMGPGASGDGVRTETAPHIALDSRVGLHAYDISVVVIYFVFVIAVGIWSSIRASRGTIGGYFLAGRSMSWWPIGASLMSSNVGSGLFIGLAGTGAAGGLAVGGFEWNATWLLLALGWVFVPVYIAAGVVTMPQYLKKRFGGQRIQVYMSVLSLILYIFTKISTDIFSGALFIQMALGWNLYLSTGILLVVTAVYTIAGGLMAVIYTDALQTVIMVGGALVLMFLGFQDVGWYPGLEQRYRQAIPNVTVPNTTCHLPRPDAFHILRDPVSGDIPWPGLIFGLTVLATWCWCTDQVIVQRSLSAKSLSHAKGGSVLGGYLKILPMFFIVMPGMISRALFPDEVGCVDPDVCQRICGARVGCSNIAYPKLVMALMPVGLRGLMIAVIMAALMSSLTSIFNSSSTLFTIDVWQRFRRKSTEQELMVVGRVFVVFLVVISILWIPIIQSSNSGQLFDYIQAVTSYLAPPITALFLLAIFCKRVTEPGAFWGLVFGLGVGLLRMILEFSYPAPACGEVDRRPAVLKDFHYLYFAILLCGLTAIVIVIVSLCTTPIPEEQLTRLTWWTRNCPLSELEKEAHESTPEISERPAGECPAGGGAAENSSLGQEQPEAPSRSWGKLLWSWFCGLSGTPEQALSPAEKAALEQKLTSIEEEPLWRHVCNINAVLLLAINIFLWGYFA
Excerpt: (§1) Human SMINT-carrying expression plasmid SMINT/pME18S-FL (denotation of bacteria: Escherichia coli/SMINT2010324), which was deposited with Patent Microorganisms Depositary at the National Institute of Technology and Evaluation under an accession number: FERMP-18756 on Mar. 12, 2002, was transfected to COS-7 cells (RIKEN CELL BANK RCB0539) by lipofection method. LIPOFECTAMINE PLUS reagent (Invitrogen) was used as the lipofection reagent. A day before the lipofection, COS-7 cells were suspended in D-MEM medium (Invitrogen) at 6×10^5 cells per 1 mL, and 50 μL of the suspended cells was dispensed into each well of 96-well plate. The lipofection was performed by the following methods. For each well, 0.1 μg of the plasmid was diluted with 10 μL of D-MEM, added 0.5 μL of PLUS reagent, mixed gently, and kept stand for 15 minutes to prepare Plasmid Dilute Solution. For each well, 0.5 μL of LIPOFECTAMINE reagent was diluted with 10 μL of D-MEM to prepare LIPOFECTAMINE Dilute Solution. The Plasmid Dilute Solution was mixed with an equal volume of the LIPOFECTAMINE Dilute Solution, kept stand for 15 minutes. After that, 20 μL of the mixture was added to each well of cell culture medium, and the cells were cultured for 5 hours at 37° C. under 5% CO2. Then 100 μL of D-MEM containing 16.7% fetal bovine serum (Sanko Jun-yaku) was added to each well. […]

human SMINT [2] = target: T1, human SMINT; test: Confirmatory test for substrate specificity of human SMINT (inhibition of α-MG uptake by natural sugars); type: cell-based; conditions: natural sugars added to Uptake Buffer with 1 mM α-MG; COS-7 cells transiently expressing human SMINT
Excerpt: FIG. 2 is a graph showing substrate specificity of human SMINT. The vertical axis in dicates methyl-α-D-glucopyranoside (α-MG) uptake activity (%), and the horizontal axis indicates concentration (mol/L).
1) Preparation of Cells Transiently Expressing Human SMINT
as §1, with “Solution.” for “Solution. The Plasmid Dilute Solution was mixed with an equal volume of the LIPOFECTAMINE Dilute Solution, kept stand for 15 minutes. After that, 20 μL of the mixture was added to each well of cell culture medium, and the cells were cultured for 5 hours at 37° C. under 5% CO2. Then 100 μL of D-MEM containing 16.7% fetal bovine serum (Sanko Jun-yaku) was added to each well.”
To Uptake Buffer consisting of 140 mM sodium chloride, 2 mM potassium chloride, 1 mM calcium chloride, 1 mM magnesium chloride, 10 mM 2-[2-(2-hydroxyethyl)-1-piperazinyl]-ethanesulfonic acid, and 5 mM tris(hydroxymethyl)aminomethane (pH 7.4), was added methyl-α-D-glucopyranoside (α-MG) composed of its non-radiolabeled form (Sigma) and ^14C-labeled form (Amersham Biosciences) at 1 mM as the final concentration. […] To the cell lysates were added 150 μL per well of MicroScint 40 (Packard), mixed well, and the radio activity was measured in a micro scintillation counter TOPCOUNT (Packard). α-MG uptake by the cells treated with each concentration of test compounds was calculated as relative activity to control group, which is set as 100% uptake after deducting the basal uptake. […]

| IC50 (human SMINT [1]) [nM] | recognition as substrate by SMINT (FIG. 2) (human SMINT [2]) | SMILES |
| --- | --- | --- |
| 700 |  | COc1ccc(Cc2c(O[C@@H]3O[C@H](CO)[C@@H](O)[C@H](O)[C@H]3O)nn(C(C)C)c2Oc2ccccc2)cc1 [Example 1, 1-Isopropyl-4-(4-methoxybenzyl)-5-phenoxy-3-(β-D-glucopyranosyloxy)-1H-pyrazole] |
|  | not | O=C[C@H](O)[C@@H](O)[C@@H](O)[C@H](O)CO [galactose] |
| 890 |  | COc1ccc(Cc2c(O[C@@H]3O[C@H](CO)[C@@H](O)[C@H](O)[C@H]3O)nn(C(C)C)c2-n2cccn2)c(OC)c1 [Example 4, 1-Isopropyl-4-(2,4-dimethoxyphenylmethyl)-5-(1H-pyrazol-1-yl)-3-(β-D-glucopyranosyloxy)-1H-pyrazole] |
|  | recognizes | O=C(CO)[C@@H](O)[C@H](O)[C@H](O)CO [fructose] |
|  | recognizes | OC[C@H]1OC[C@H](O)[C@@H](O)[C@@H]1O [1,5-anhydroglucitol] |
